Active and inactive are the calls of the source.
Key:
[1] = tested on: Streptococcus sp. 'group A'; experiment: Streptococcus pyogenes SK(-)GAS viability under kanamycin – luminescence, BacTiterGlo, confirmation, counter-screen for streptokinase expression inhibitor project, dose response (AID 1900); assay type: functional, organism-based
BJ [2] = experiment: BJ-TERT fibroblast viability loss – cell-based, RAS-independent, luminescence, dose response (AID 1933); assay type: functional; settings: Homo sapiens
cells [3] = assay type: functional, cell-based
[4] = Luminescence Cell-Based Dose Response HTS to Identify Inhibitors of 5'UTR Stem-Loop Driven Prion Protein mRNA Translation in H4 Neuroglioblastoma Cells. [Related pubchem assays: 1827 (Project Summary), 1813 (Primary HTS)]; assay type: functional
[5] = alpha-synuclein stem-loop luciferase translation blockers – H4 neuroglioma cells, luminescence, confirmation (AID 1988); assay type: functional, cell-based
Streptokinase A = biological target: T1, Streptokinase A (Streptococcus pyogenes serotype M1, UniProt P10520); experiment: viability-normalized secreted streptokinase activity reduction – plasminogen activation absorbance, OD405, dose response (AID 1914); assay type: functional, Streptococcus pyogenes M1 GAS;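 further: secreted streptokinase activity via plasminogen activation per viability signal from cell pellet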
T1 sequence (P10520 whole entry): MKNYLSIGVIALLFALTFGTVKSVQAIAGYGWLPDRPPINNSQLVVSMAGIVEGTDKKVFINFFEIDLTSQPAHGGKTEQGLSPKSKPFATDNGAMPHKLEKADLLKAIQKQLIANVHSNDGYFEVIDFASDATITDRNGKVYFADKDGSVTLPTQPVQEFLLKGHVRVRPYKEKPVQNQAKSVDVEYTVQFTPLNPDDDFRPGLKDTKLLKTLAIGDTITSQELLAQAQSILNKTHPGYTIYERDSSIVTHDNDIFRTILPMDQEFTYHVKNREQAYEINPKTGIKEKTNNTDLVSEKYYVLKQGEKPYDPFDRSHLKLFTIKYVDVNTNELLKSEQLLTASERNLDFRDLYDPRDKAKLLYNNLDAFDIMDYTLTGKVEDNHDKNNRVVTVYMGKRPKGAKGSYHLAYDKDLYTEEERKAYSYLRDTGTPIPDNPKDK

BJ [6] = experiment: cells; assay type: functional, cell-based; settings: Homo sapiens
cells [7] = assay type: functional, cell-based; remark: listed apart in the source
[8] = biological target: T2, Kappa-type opioid receptor (Homo sapiens, UniProt P41145); assay type: functional
Beta-galactosidase = Beta-galactosidase (Escherichia coli, UniProt Q8VNN2); assay type: functional
BJ [9] = experiment: BJ-TERT-LT-ST fibroblast viability loss – cell-based, RAS-independent, luminescence, dose response (AID 1935); assay type: functional; settings: Homo sapiens;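 further: BJ fibroblasts immortalized with TERT plus LT and ST oncogenes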
Ephrin type-A receptor 4 = Ephrin type-A receptor 4 (Mus musculus, UniProt Q03137); experiment: EphA4 ligand-binding antagonists – biochemical, colorimetric, mouse EphA4, primary screen (AID 689); assay type: functional
[10] = biological target: T2, Kappa-type opioid receptor; assay type: functional; remark: listed apart in the source
[11] = DRD fibroblast viability loss – cell-based, non-viral oncogenic, luminescence, dose response (AID 1934); assay type: functional; settings: Homo sapiens
Streptococcus = experiment: GAS UMAA2166 growth inhibition – luminescence, BacTiterGlo, counter-screen for streptokinase expression inhibitor project, dose response (AID 1915); assay type: functional, organism-based;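 further: potency for reduction of bacterial viability or growth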
Exodeoxyribonuclease V = Exodeoxyribonuclease V (Escherichia coli (strain K12), UniProt P04993+P07648+P08394); experiment: RecBCD inhibition via phage-restricted bacterial growth – absorbance, V66 E. coli, mutant T4 phage, counter-screen for AddAB inhibitor project, dose response (AID 492957); assay type: functional, cell-based, Escherichia coli str. K-12 substr. MG1655
[12] = biological target: T3, Heat shock factor protein 1 (Mus musculus, UniProt P38532); experiment: enhancement of HSF1-driven luciferase signal – cell-based, NIH3T3, luminescence, dose retest, confirmation (AID 435004); assay type: functional;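 further: stress induced by proteasome inhibitor MG132 added 30 min after compound; luciferase reporter driven by HSF1 response element in NIH3T3 cells; actives raise luminescence as potentiators of the MG132 stress response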
T3 sequence (P38532 whole entry): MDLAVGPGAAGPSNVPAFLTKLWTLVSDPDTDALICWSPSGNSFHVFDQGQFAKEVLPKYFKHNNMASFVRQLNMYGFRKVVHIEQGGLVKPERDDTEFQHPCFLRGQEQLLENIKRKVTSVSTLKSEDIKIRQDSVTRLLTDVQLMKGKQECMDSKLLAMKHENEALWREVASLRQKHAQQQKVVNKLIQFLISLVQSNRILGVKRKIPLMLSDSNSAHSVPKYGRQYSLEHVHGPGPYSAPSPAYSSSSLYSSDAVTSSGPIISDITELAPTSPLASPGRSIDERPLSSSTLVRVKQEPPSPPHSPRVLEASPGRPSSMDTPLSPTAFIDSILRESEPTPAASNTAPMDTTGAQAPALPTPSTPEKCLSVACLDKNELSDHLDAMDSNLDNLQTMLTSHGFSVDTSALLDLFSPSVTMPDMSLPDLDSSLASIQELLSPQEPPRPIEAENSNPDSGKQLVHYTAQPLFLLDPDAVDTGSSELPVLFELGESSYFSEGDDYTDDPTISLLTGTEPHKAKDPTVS

[13] = Counterscreen for AddAB inhibitors: absorbance-based bacterial cell-based high throughput dose response assay for inhibitors of bacterial viability. [Related pubchem assays (depositor defined):AID435030, AID449728, AID449731, AID488942, AID488955, AID488956]; assay type: functional
BJ [14] = experiment: growth inhibition of engineered Ras-driven BJ cells – cell-based, alamar blue fluorescence, cherrypicked samples, dose response (AID 2631); assay type: functional; settings: Homo sapiens;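 further: confirmatory dose-response assay in RAS-dependent BJ fibroblasts engineered with TERT, LT and ST, with cytotoxicity read by fluorescence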
INS1 = experiment: INS-1E survival protection against cytokine death – cell-based, luminescence, retest, dose response (AID 449756); assay type: functional; settings: Rattus norvegicus;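 further: cell death triggered by IL-1 beta plus TNF-alpha plus IFN-gamma mixture; protective hits raise ATP signal compared with cytokine alone wells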
[15] = biological target: Induced myeloid leukemia cell differentiation protein Mcl-1 (Homo sapiens, UniProt Q07820); assay type: functional
[16] = biological target: 1-acylglycerol-3-phosphate O-acyltransferase ABHD5/Perilipin-5 (Homo sapiens, UniProt Q00G26+Q8WTS1); experiment: Luminescence-based biochemical high throughput dose response assay for inhibitors of the interaction of the lipase co-activator protein, abhydrolase domain containing 5 (ABHD5) with perilipin-5 (MLDP; PLIN5) (2K validation set). [Related pubchem assays (depositor defined):AID493035, AID493241]
Perilipin-1/ABHD5 = Perilipin-1/ABHD5 (Homo sapiens, UniProt O60240+Q8WTS1); experiment: Luminescence-based biochemical high throughput dose response assay for inhibitors of the interaction of the lipase co-activator protein, abhydrolase domain containing 5 (ABHD5) with perilipin-1 (PLIN1) (2K validation set). [Related pubchem assays (depositor defined):AID493027, AID493057]
[17] = NIH-3T3 fibroblast cytotoxicity, dose response, cytotoxicity control, cell-based, fluorescence, Alamar Blue, secondary assay (AID 2327); assay type: functional;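 further: NIH-3T3 mouse fibroblasts cultured with fluconazole at 8 µg/mL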
HEK293 [18] = experiment: inhibition of NOD1-driven NF-kB reporter – cell-based, luminescence, uHTS, primary screen (AID 1578); assay type: functional; settings: Homo sapiens
HEK293 [19] = experiment: cells; assay type: functional, cell-based; settings: Homo sapiens
[20] = fluconazole-exposed Candida albicans growth modulators – fluorescence, retest, confirmation (AID 2467); assay type: functional, cell-based
HEK293 [21] = experiment: cells; assay type: functional, cell-based; settings: Homo sapiens; remark: listed apart in the source
[22] = biological target: Nucleotide-binding oligomerization domain-containing protein 2 (Homo sapiens, UniProt Q9HC29); experiment: inhibition of NOD2-driven NF-kB reporter – cell-based, luminescence, uHTS, HEK293 (AID 1566); assay type: functional
HEK293 [23] = experiment: NOD2 signaling inhibitors in MDP-stimulated cells, cell-based, uHTS, luminescence (AID 2001); assay type: functional; settings: Homo sapiens
[24] = Trypanosoma cruzi growth suppression in host cells – NIH3T3 host cells, beta-gal luminescence, confirmation (AID 2044); assay type: functional, cell-based;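 further: intracellular parasites grown in NIH/3T3 mouse fibroblasts as host cells; luminescent beta-galactosidase reporter signal from transgenic T. cruzi replicating inside host cells; inhibitors lower the luminescence signal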
HEK293 [25] = experiment: cells; assay type: functional, cell-based; settings: Homo sapiens; remark: listed apart in the source
[26] = NIH3T3 cell viability loss – ATP luminescence, mouse fibroblasts, counter-screen, dose response (AID 2010); assay type: functional, cell-based;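 further: cells exposed to compound for about 90 hours before reading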
[27] = biological target: G-protein coupled receptor 55 (Homo sapiens, UniProt Q9Y2T6); experiment: selective activators of receptor GPR55 – imaging, U2OS cells, beta-arrestin-GFP redistribution, primary screen (AID 1961); assay type: functional
[28] = HEK-293T viability loss after treatment – luminescence, T-cell screen hits, cytotoxicity control for TCR NF-kB inhibitor project, dose response (AID 489026); assay type: functional, cell-based;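 further: cells exposed to compound about 14 hours before the viability readout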
Nonstructural protein 1 = Nonstructural protein 1 (Influenza A virus, UniProt Q194T2); assay type: functional, Influenza A virus (A/California/07/2009(H1N1))
Protein S100-A4 = Protein S100-A4 (Homo sapiens, UniProt P26447); experiment: human S100A4 peptide interaction inhibition curves – biochemical, fluorescence polarization, cherry-picked hits, dose response (AID 687001); assay type: functional
[29] = biological target: T4, Histone-lysine N-methyltransferase NSD2 (Homo sapiens, UniProt O96028); assay type: biochemical
T4 sequence (O96028 whole entry): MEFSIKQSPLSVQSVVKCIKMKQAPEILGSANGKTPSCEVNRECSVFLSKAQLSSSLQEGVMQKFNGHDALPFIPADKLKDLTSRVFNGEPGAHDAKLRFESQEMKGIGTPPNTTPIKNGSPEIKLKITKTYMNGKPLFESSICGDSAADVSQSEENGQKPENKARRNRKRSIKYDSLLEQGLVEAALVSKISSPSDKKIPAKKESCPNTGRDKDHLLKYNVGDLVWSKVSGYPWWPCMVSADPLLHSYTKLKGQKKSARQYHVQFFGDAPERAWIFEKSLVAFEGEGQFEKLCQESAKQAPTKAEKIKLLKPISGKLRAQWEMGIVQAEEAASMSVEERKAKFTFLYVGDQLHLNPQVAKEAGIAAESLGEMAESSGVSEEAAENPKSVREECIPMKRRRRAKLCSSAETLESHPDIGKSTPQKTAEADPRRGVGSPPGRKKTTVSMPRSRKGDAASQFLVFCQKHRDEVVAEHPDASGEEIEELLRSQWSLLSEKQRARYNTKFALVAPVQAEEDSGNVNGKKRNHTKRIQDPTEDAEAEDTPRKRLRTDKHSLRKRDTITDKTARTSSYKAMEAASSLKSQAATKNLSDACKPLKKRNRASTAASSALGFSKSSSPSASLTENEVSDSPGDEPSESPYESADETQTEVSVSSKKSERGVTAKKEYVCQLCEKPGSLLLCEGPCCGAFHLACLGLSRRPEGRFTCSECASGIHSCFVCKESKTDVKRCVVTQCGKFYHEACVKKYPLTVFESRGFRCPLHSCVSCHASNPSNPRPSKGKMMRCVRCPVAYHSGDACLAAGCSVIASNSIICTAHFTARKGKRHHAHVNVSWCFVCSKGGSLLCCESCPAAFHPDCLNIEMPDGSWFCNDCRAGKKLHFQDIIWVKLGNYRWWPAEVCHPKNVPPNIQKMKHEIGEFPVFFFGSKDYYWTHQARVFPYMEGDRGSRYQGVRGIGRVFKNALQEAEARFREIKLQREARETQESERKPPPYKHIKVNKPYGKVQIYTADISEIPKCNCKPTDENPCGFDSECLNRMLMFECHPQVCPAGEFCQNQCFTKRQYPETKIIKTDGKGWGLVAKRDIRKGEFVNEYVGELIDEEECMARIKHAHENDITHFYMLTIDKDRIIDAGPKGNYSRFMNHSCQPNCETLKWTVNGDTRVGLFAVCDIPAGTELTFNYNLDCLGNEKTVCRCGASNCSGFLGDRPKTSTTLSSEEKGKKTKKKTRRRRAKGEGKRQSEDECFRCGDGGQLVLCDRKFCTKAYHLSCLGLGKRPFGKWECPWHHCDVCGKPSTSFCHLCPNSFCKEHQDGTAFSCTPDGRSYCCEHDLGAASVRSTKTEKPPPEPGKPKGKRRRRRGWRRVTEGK

cells [30] = experiment: cells

T2 sequence (P41145 whole entry): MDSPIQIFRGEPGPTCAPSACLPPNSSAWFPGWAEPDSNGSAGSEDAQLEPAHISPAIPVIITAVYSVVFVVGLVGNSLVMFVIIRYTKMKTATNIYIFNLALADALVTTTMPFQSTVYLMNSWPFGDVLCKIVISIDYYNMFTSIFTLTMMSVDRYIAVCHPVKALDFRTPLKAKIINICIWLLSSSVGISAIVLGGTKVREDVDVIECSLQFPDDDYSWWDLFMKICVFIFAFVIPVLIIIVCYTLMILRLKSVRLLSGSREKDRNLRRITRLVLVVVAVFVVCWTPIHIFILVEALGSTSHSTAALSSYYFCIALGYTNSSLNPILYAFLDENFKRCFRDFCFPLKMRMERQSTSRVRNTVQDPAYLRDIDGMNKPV
Sequence of Ephrin type-A receptor 4 (Q03137 whole entry): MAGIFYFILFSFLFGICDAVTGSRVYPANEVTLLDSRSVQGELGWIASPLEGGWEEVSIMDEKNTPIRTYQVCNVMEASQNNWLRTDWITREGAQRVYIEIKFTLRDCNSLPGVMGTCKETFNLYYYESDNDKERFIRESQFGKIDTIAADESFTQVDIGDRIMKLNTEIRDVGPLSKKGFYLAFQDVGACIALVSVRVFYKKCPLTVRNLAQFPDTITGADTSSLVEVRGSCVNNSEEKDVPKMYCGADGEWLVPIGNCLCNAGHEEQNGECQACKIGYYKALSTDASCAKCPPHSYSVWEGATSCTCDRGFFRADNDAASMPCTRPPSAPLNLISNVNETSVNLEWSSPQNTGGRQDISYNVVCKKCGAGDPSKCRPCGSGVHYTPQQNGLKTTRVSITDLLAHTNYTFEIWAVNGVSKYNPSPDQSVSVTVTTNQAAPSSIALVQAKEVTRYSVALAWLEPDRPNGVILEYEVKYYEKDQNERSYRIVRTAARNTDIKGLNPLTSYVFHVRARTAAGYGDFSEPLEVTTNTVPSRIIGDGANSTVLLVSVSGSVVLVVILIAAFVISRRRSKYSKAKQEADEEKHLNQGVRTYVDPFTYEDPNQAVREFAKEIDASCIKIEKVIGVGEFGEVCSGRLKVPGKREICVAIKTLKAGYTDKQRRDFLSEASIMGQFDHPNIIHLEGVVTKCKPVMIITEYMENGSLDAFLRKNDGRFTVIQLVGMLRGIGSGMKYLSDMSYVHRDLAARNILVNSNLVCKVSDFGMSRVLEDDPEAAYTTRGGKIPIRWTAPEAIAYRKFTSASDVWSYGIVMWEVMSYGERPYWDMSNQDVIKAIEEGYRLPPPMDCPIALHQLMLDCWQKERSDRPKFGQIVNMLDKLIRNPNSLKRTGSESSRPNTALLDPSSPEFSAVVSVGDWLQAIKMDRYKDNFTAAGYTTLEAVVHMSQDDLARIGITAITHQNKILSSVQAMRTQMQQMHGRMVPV
Sequence of Protein S100-A4 (P26447 whole entry): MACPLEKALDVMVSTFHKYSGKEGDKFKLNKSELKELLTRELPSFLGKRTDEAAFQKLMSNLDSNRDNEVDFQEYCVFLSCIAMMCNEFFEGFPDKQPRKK
Sequence of Induced myeloid leukemia cell differentiation protein Mcl-1 (Q07820 whole entry, the tested form may be a part): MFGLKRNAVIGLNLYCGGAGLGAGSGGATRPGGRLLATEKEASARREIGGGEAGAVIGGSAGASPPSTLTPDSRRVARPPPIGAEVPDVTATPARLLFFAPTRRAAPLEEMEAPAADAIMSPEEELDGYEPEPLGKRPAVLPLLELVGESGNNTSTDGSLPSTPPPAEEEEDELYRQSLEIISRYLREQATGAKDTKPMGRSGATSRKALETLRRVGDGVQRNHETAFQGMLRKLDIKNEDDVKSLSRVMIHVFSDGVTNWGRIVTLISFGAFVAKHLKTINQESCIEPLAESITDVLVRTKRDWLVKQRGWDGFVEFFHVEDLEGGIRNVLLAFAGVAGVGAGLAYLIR
Sequence of Perilipin-1/ABHD5 (Q8WTS1 whole entry, the tested form may be a part): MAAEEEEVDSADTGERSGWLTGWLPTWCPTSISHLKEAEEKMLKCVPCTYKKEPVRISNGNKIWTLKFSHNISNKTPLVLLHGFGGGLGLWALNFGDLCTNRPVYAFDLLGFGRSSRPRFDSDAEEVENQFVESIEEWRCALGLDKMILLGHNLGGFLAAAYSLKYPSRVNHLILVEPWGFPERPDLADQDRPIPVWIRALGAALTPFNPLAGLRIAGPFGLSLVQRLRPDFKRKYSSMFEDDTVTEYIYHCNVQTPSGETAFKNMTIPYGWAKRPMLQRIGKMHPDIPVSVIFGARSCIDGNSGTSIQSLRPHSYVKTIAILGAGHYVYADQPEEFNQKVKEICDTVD
Sequence of Perilipin-1/ABHD5 (O60240 whole entry, the tested form may be a part): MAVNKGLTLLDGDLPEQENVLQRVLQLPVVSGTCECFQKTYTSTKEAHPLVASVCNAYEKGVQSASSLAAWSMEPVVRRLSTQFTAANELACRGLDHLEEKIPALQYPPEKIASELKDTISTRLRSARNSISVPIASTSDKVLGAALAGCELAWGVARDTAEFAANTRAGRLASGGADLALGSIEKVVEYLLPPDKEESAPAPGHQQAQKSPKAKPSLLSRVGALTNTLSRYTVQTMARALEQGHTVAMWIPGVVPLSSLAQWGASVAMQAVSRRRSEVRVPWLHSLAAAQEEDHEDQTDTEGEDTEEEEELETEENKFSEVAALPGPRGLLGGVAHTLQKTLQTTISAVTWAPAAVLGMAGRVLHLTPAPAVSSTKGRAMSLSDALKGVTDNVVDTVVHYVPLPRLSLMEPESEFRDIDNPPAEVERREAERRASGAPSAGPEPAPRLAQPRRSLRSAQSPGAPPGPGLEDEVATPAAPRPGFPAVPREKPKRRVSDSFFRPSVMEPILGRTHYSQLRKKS
Sequence of Nonstructural protein 1 (Q194T2 whole entry): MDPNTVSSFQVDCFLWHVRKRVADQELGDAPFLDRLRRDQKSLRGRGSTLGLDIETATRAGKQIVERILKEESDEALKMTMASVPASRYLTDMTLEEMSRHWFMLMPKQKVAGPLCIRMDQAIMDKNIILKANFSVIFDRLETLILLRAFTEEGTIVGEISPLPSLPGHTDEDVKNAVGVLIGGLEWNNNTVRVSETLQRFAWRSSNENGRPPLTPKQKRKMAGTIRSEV
Sequence of Beta-galactosidase (Q8VNN2 whole entry): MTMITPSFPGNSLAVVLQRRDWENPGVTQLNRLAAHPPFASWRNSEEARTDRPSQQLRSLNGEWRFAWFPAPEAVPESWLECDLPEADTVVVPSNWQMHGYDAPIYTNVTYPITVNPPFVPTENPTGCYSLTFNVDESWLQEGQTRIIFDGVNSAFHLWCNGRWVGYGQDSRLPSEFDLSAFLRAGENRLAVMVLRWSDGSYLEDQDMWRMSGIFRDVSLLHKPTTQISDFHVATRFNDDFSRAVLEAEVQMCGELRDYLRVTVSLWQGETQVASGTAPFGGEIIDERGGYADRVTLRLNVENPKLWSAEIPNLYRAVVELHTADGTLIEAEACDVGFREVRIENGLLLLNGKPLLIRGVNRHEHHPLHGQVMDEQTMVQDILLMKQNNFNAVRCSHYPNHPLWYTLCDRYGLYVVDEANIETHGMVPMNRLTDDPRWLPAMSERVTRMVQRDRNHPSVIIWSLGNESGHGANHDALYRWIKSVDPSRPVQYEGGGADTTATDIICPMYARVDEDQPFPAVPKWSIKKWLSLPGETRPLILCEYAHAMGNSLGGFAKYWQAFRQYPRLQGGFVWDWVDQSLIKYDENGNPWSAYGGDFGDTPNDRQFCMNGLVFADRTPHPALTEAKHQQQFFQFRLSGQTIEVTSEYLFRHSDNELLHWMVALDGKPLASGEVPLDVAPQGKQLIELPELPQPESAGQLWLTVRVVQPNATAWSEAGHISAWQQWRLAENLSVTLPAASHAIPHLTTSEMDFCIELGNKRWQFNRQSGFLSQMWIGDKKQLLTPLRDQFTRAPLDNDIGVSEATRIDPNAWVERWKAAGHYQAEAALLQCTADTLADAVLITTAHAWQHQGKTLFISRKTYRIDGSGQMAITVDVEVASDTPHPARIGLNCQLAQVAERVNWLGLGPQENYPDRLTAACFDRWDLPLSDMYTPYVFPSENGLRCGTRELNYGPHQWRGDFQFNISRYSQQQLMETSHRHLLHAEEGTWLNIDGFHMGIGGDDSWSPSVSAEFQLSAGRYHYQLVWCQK
Sequence of G-protein coupled receptor 55 (Q9Y2T6 whole entry): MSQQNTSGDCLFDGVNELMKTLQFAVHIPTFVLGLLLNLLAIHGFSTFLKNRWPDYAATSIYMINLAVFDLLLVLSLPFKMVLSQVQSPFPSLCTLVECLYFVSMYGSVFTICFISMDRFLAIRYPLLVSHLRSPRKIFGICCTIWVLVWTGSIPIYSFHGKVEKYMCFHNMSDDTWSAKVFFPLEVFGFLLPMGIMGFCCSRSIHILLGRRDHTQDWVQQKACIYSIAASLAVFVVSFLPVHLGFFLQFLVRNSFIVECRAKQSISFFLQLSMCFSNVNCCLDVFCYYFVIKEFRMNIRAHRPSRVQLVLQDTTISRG
Sequence of 1-acylglycerol-3-phosphate O-acyltransferase ABHD5/Perilipin-5 (Q00G26 whole entry, the tested form may be a part): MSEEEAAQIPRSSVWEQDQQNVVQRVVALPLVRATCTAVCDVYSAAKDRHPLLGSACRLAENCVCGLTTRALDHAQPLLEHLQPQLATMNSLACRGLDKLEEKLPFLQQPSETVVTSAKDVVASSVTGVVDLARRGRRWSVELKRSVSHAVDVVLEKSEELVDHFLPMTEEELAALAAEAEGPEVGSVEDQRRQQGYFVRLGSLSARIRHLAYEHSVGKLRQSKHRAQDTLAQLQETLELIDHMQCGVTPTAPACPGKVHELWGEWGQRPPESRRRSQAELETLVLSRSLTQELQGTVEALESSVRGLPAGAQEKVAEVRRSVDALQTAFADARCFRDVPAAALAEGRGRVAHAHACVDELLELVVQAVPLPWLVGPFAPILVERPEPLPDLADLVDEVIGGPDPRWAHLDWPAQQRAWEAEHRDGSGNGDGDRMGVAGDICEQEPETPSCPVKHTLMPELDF
Sequence of 1-acylglycerol-3-phosphate O-acyltransferase ABHD5/Perilipin-5 (Q8WTS1 whole entry, the tested form may be a part): as the sequence (Q8WTS1 whole entry, the tested form may be a part) above

Oc1c(N=Nc2ccccn2)ccc2ccccc12
EC50 [1]: 2.67 µM (active) | EC50 (BJ [2]): 2.8 µM (active) | EC50 (cells [3]): > 350 µM (not active) | EC50 [4]: 9.75 µM (active) | EC50 [5]: 7.46 µM (active) | EC50 (Streptokinase A): > 150 µM (not active) | EC50 (BJ [6]): 2.76 µM (inconclusive) | EC50 (cells [7]): 6.46 µM (active) | IC50 [8]: 2.32 µM (active) | EC50 (Beta-galactosidase): 14.5 µM (active) | EC50 (BJ [9]): 2.99 µM (inconclusive) | IC50 (Ephrin type-A receptor 4): 13.8 µM (active) | IC50 [10]: > 32 µM | EC50 [11]: 3.59 µM (active) | EC50 (Streptococcus): 25.1 µM (active) | IC50 (Exodeoxyribonuclease V): > 119 µM (inactive) | EC50 [12]: 9.82 µM (active) | IC50 [13]: > 119 µM (inactive) | EC50 (BJ [14]): 2.84 µM (active) | AC50 (INS1): 0.375 µM (active)

COC(=O)c1cc(-c2ccc(C)o2)nc2ccccc12
IC50 [15]: 18 µM (active) | IC50 [16]: 8.7 µM (active) | IC50 (Perilipin-1/ABHD5): 8.68 µM (active)

CCN(CC)c1ccc(/C=C/c2ccc3ccc(OC)cc3[n+]2CC)cc1
EC50 [17]: > 160 µM (inconclusive) | EC50 (HEK293 [18]): 3.64 µM (active) | EC50 (BJ [2]): 0.732 µM (inconclusive) | IC50 (HEK293 [19]): 1.9 µM (active) | EC50 (BJ [6]): 2.82 µM (active) | EC50 [20]: < 0.03 µM (active) | IC50 (HEK293 [21]): 9.34 µM (active) | EC50 [22]: 6.78 µM (active) | IC50 (HEK293 [23]): 2.2 µM (active) | EC50 [24]: < 0.1 µM (active) | IC50 (HEK293 [25]): > 20 µM (inactive) | EC50 [26]: 5.54 µM (active) | EC50 (BJ [9]): 0.892 µM (inconclusive) | EC50 [11]: 2.25 µM (active) | EC50 [27]: > 32 µM (inactive) | IC50 [28]: > 80 µM (inactive) | IC50 (Nonstructural protein 1): 17.3 µM (active) | AC50 (Protein S100-A4): 1.12 µM (active) | AC50 [29]: 17.4 µM (active) | EC50 (cells [30]): 0.023 µM (active)
